Consider ten molecules from ChEMBL document CHEMBL3431459, “Roche carnitine palmitoyltransferase modulator screening data (supplementary data associated with the publication CHEMBL2216752)”.

Data set [1] in a line: SUPPLEMENTARY: Lyophilisation Solubility Assay (LYSA). The data set is classed as physicochemical. Conditions: read-out: Kinetic_solubility.
Data set [2] has as its target T1, Carnitine O-palmitoyltransferase 1, muscle isoform (Homo sapiens, UniProt Q92523).
T1 sequence (Q92523 whole entry): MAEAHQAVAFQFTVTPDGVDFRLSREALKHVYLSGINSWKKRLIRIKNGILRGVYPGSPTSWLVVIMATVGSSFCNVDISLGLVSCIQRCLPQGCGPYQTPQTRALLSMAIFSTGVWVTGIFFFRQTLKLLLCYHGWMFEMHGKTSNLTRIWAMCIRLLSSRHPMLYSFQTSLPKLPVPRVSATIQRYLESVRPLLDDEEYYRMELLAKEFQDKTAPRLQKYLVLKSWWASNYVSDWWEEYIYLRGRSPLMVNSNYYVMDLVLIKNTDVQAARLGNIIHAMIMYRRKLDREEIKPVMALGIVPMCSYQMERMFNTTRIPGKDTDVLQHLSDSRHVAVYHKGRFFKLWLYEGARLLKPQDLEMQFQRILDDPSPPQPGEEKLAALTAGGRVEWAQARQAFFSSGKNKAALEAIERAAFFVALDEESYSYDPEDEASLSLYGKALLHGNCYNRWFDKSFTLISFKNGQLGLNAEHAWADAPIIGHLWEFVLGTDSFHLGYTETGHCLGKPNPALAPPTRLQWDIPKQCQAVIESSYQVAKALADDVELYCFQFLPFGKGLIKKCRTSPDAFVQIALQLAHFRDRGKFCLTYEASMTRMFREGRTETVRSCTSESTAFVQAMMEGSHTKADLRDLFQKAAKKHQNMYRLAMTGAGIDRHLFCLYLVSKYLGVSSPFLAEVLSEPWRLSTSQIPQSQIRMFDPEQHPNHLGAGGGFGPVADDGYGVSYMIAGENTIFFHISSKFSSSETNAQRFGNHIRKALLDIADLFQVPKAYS
Kind of data set: SUPPLEMENTARY: Inhibition of Carnitine palmitoyltransferase 1, muscle isoform. Set-up: species or system Muscle tissue.

Data set [3] has as its target T2, Carnitine O-palmitoyltransferase 2, mitochondrial (Homo sapiens, UniProt P23786).
T2 sequence (P23786 whole entry): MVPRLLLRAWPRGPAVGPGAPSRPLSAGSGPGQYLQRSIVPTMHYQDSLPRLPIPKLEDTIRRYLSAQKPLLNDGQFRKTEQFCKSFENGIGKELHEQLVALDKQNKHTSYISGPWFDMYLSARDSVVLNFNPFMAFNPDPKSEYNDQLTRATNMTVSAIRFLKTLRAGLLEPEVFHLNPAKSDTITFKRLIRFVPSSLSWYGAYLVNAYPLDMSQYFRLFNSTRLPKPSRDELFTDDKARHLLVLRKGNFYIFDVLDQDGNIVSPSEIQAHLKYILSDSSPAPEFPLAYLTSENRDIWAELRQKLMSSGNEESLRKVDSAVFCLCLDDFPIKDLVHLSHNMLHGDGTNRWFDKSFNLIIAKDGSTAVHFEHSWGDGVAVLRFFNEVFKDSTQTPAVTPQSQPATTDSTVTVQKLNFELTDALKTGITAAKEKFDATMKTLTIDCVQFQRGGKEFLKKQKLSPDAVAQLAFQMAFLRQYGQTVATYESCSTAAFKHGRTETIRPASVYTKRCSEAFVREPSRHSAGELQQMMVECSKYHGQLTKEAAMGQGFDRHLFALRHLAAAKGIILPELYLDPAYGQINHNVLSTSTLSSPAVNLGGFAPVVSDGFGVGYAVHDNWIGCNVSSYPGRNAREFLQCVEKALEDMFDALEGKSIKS
The data set can be described thus: (§1) SUPPLEMENTARY: Inhibition of Carnitine palmitoyltransferase 2.

For data set [4], the target named is T3, Carnitine O-palmitoyltransferase 2, mitochondrial (Rattus norvegicus, UniProt P18886).
T3 sequence (P18886 whole entry): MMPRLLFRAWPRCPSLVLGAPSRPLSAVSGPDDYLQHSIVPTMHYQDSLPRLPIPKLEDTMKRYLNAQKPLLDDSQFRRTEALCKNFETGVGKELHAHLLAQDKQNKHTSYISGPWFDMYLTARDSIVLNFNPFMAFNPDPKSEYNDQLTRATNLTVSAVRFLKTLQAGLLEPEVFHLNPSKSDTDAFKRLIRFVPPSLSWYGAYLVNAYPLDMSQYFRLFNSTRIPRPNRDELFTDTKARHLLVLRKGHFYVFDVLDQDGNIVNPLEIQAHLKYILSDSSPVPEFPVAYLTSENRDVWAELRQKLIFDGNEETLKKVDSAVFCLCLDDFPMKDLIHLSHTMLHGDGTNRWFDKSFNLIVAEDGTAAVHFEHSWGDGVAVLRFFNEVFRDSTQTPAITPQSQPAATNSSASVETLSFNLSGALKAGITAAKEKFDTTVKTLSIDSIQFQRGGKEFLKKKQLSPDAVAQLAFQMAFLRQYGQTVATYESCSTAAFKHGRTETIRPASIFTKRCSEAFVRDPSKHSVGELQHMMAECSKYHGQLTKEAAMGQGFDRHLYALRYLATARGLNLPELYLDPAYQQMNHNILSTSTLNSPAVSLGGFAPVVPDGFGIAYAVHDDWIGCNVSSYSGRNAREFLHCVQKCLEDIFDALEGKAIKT
The data set is described as §1.

Data set [5] can be described thus: SUPPLEMENTARY: Lipophilicity (log D) Determination by high-throughput shake-flask. The data set is classed as physicochemical. Conditions: octanol/water.
Data set [6] addresses T4, Carnitine O-palmitoyltransferase 1, liver isoform (Homo sapiens, UniProt P50416).
T4 sequence (P50416 whole entry): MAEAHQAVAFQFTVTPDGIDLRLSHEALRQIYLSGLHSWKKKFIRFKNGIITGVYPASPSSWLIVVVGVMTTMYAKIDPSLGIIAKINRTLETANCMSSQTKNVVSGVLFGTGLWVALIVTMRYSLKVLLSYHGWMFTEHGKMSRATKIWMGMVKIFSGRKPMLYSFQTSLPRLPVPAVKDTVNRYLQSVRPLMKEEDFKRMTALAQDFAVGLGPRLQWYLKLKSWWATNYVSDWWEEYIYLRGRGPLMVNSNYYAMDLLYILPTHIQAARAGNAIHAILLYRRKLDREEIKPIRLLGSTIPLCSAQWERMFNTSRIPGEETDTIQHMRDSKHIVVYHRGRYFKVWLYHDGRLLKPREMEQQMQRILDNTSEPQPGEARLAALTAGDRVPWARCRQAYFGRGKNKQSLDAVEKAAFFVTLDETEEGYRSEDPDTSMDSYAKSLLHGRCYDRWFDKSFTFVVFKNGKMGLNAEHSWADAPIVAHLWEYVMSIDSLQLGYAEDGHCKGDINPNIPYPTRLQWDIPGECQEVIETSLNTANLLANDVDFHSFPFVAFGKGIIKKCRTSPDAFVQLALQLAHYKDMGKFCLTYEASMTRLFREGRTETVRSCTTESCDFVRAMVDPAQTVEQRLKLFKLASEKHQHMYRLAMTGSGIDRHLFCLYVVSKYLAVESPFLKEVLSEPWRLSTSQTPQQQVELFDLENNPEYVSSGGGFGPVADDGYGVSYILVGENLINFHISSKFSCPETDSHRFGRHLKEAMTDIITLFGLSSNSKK
Kind of data set: (§2) SUPPLEMENTARY: Inhibition of Carnitine palmitoyltransferase 1, liver isoform.

In data set [7] the target is T5, Carnitine O-palmitoyltransferase 1, liver isoform (Rattus norvegicus, UniProt P32198).
T5 sequence (P32198 whole entry): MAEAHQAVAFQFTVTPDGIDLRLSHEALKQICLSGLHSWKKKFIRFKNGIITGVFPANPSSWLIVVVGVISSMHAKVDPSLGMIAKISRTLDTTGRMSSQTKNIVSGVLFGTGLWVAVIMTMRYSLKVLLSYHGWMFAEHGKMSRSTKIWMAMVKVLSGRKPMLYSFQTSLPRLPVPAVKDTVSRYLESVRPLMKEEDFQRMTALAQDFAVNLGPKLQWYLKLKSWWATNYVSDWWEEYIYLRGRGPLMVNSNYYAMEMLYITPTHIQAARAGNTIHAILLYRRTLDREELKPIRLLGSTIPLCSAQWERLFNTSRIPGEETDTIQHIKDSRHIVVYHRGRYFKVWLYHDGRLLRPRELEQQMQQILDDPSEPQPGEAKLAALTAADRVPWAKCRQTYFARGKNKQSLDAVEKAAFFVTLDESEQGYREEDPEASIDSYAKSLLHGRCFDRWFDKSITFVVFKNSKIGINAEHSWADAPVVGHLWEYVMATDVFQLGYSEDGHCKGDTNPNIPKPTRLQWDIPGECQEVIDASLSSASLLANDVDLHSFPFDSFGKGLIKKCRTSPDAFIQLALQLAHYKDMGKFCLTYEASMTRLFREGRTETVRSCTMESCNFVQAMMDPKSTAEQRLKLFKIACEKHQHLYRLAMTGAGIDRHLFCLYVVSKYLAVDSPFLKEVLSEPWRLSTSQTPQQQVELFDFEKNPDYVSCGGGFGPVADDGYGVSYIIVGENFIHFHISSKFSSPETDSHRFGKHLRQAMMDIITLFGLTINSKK
The data set is described as §2.

Data set [8] in a line: SUPPLEMENTARY: PAMPA permeability assay. The data set is classed as physicochemical. Conditions: read-out: Permeability.

Structures are written as SMILES. Converted amounts (≈) assume the structure as drawn.

For `N#Cc1cncc(-c2noc([C@H]3CCCCN3C(=O)COc3ccccc3)n2)c1`, in data set [1], the solubility kinetic turned out to be 11 µg/mL (≈ 28.2 µM). Besides, the IC50 (in general, the point on the concentration scale where inhibition reaches its midpoint) in data set [2] is over 100000 nM; in data set [3], over 100000 nM; in data set [4] it was over 100000 nM; in data set [6], 232 nM; in data set [7] it was 759 nM. Also, the logD – broadly, lipophilicity at a set pH, counting ionised and neutral species – in data set [5] was 2.49. Also, in data set [8], the Papp was 6.36 ×10⁻⁶ cm/s.

Regarding `O=C1Cc2cc(-c3noc(C4C5CC5CN4C(=O)COc4ccccc4)n3)ccc2N1` (stereo not given), in data set [1], the solubility kinetic worked out at 38 µg/mL (≈ 91.3 µM). Further, the IC50 in data set [2] turned out to be 39000 nM; in data set [3], 65000 nM; in data set [4] it was 94400 nM; in data set [6] it was 136 nM; in data set [7] it was 388 nM. The same molecule returned a logD in data set [5] of 2.51. Moreover, in data set [8], the Papp was 5.4 ×10⁻⁶ cm/s.

In the case of `COc1ccc(Cl)cc1S(=O)(=O)N1COc2c(F)cc(C(=O)Nc3ccc(C(=O)O)c(F)c3)cc21`, the solubility kinetic in data set [1] amounted to 59 µg/mL (≈ 112 µM). Moreover, the IC50 stood at 4930 nM in data set [2]; 1950 nM in data set [3]; 10500 nM in data set [4]; 61.7 nM in data set [6]; 84.4 nM in data set [7]. The same molecule came in with a logD in data set [5] of 0.63. In addition, in data set [8], the Papp stood at 1.87 ×10⁻⁶ cm/s.

`COc1ccc(Cl)cc1S(=O)(=O)N1CC(C)c2ccc(C(=O)Nc3ccc(C(=O)O)c(F)c3)cc21` (stereo not given): the solubility kinetic in data set [1] was 493 µg/mL (≈ 950 µM). Besides, the IC50 is 1180 nM in data set [2]; 584 nM in data set [3]; 3880 nM in data set [4]; 92.2 nM in data set [6]; 46.7 nM in data set [7]. The same molecule came in with a log distribution coefficient (logD) in data set [5] of 0.6. For the same molecule, the Papp in data set [8] was found to be 1.99 ×10⁻⁶ cm/s.

Consider `COc1ccc(Cl)cc1S(=O)(=O)N1CC(C)c2ccc(C(=O)Nc3ccc(C(=O)O)c(Cl)c3)cc21` (stereo not given), for which the solubility kinetic in data set [1] was 528 µg/mL (≈ 986 µM). The IC50 in data set [2] stood at 1310 nM; in data set [3] it was 686 nM; in data set [4] it was 1630 nM; in data set [6] it was 190 nM; in data set [7], 63 nM. The same molecule had a log distribution coefficient (logD) in data set [5] of 0.57. Further, the Papp in data set [8] was found to be 1.77 ×10⁻⁶ cm/s.

Regarding `NC(=O)COc1cccc(-c2noc([C@H]3CCCCN3C(=O)COc3ccccc3)n2)c1`, the solubility kinetic in data set [1] was found to be 57 µg/mL (≈ 131 µM). The 50% inhibitory concentration (IC50) in data set [2] was over 100000 nM; in data set [3] it was 18500 nM; in data set [4], over 100000 nM; in data set [6], 63.6 nM; in data set [7], 147 nM. In data set [5], this molecule displayed a logD of 2.51. The Papp in data set [8] turned out to be 2.49 ×10⁻⁶ cm/s.

On to `N#Cc1ccc(-c2nc([C@H]3CCCCN3C(=O)COc3ccccc3)no2)cc1`, for which, in data set [1], the solubility kinetic was 6 µg/mL (≈ 15.4 µM). Further, the IC50 is over 100000 nM in data set [2]; 22000 nM in data set [3]; over 100000 nM in data set [4]; 80.7 nM in data set [6]; 143 nM in data set [7]. Besides, the logD in data set [5] was 3.16. In data set [8], the Papp was 5.52 ×10⁻⁶ cm/s.

With `N#Cc1cccc(-c2nc([C@H]3CCCCN3C(=O)COc3ccccc3)no2)c1`, the solubility kinetic in data set [1] was under 1 µg/mL. Further, the half-maximal inhibitory concentration (IC50) in data set [2] was over 100000 nM; in data set [3], 15600 nM; in data set [4], over 100000 nM; in data set [6], 84.8 nM; in data set [7], 412 nM. Further, the logD in data set [5] was 3.17. Also, the Papp in data set [8] amounted to 3.83 ×10⁻⁶ cm/s.

Consider `Nc1cncc(-c2nc([C@H]3CCCCN3C(=O)COc3ccccc3)no2)c1`, for which, in data set [1], the solubility kinetic is 19 µg/mL (≈ 50.1 µM). Also, the IC50 in data set [2] is over 100000 nM; in data set [3] it was 19000 nM; in data set [4] it was over 100000 nM; in data set [6], 144 nM; in data set [7], 923 nM. This molecule registered a logD in data set [5] of 2.39. The Papp in data set [8] amounted to 5.07 ×10⁻⁶ cm/s.

In the case of `COc1ccc(Cl)cc1Sc1c[nH]c2ccc(C(=O)Nc3ccc(C(=O)O)cc3)cc12`, the solubility kinetic in data set [1] came to 6 µg/mL (≈ 13.2 µM). In addition, the IC50 is 2520 nM in data set [2]; 4470 nM in data set [3]; 22900 nM in data set [4]; 200 nM in data set [6]; 148 nM in data set [7]. In data set [5], this molecule gave a logD of 2.21. In addition, the Papp in data set [8] was 0.18 ×10⁻⁶ cm/s.
